In the assay the target is T1, hGIP-R (Homo sapiens, UniProt P48546).
T1 construct: expressed in transfected cells; host or cells: HEK-293 clonal cell lines
T1 sequence (P48546 22-466): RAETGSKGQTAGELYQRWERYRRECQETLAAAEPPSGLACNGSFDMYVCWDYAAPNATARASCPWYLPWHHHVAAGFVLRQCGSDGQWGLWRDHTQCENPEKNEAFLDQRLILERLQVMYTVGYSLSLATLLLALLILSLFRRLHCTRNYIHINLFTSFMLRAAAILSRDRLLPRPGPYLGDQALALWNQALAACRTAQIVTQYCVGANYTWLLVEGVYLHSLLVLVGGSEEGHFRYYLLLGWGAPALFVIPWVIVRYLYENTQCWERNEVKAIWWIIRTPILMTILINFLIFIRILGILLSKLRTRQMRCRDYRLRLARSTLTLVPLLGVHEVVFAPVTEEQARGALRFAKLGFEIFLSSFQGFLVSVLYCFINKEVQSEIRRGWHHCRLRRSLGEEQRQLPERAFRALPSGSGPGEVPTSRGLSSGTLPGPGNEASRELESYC
As to the kind of experiment: Functional hGIP-R Assay (cAMP formation, HTRF). It is filed as cell-based. To be noted: for Emax: cAMP efficacy, percent of maximal response to GIP(1-42)OH, 37° C., 0.1% bovine casein, arithmetic mean ± SEM; for EC50: cAMP potency, HEK-293 cells expressing hGIP-R, incubated at 37° C. in the presence of 0.1% bovine casein, geometric mean, read-out: Human GIP-R EC50, nM (SEM, n). The method in brief: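 HEK-293 cells expressing hGIP-R were given a 20-point compound series in DMEM with 0.1% casein, 250 μM IBMX, 1% DMSO, 30 min at 37 °C. cAMP was read by HTRF against a standard curve, expressed as % of human GIP (1-42) OH maximum; EC50 and Emax came from four-parameter fits.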
A general note: Changes in cAMP serve as a functional read-out for many G protein-coupled receptors.

Broadly, the Emax is the size of the effect at its maximum, as opposed to the concentration needed. By EC50 is commonly meant the midpoint of the concentration-response curve.

Molecules are shown by their SMILES.

Consider `CC(C)(Cn1cc(C(F)(F)F)cn1)NC(=O)[C@@H](Cc1cnc2ncccn12)NC(=O)[C@H]1C[C@@H]1c1ccc(-c2cnc3nn(C4CCC4)cc3c2)cc1` [Example 84, (1S,2S)-2-(4-(2-Cyclobutyl-2H-pyrazolo[3,4-b]pyridin-5-yl)phenyl)-N-((R)-3-(imidazo[1,2-a]pyrimidin-3-yl)-1-((2-methyl-1-(4-(trifluoromethyl)-1H-pyrazol-1-yl)propan-2-yl)amino)-1-oxopropan-2-yl)cyclopropane-1-carboxamide], for which the Emax came to 89.7% and the EC50 amounted to 37.8 nM.
Consider `CC(C)(Cc1ccc(F)cn1)NC(=O)[C@@H](Cc1cnc2ncccn12)NC(=O)[C@H]1C[C@@H]1c1ccc(-c2cnc3nc(C(F)(F)F)cn3c2)cc1` [Example 85, (1S,2S)-N-((R)-1-((1-(5-Fluoropyridin-2-yl)-2-methylpropan-2-yl)amino)-3-(imidazo[1,2-a]pyrimidin-3-yl)-1-oxopropan-2-yl)-2-(4-(2-(trifluoromethyl)imidazo[1,2-a]pyrimidin-6-yl)phenyl)cyclopropane-1-carboxamide], for which the Emax came out at 87 ± 0.761% and the EC50 came to 41 nM.
On the same counts, the results for `CC(C)(Cc1ccc(F)cc1)NC(=O)[C@@H](Cc1cnc2ncccn12)NC(=O)[C@H]1C[C@@H]1c1ccc(-c2cnc3nc(C(F)(F)F)cn3c2)cc1` [Example 86, (1S,2S)-N-((R)-1-((1-(4-Fuorophenyl)-2-methylpropan-2-yl)amino)-3-(imidazo[1,2-a]pyrimidin-3-yl)-1-oxopropan-2-yl)-2-(4-(2-(trifluoromethyl)imidazo[1,2-a]pyrimidin-6-yl)phenyl)cyclopropane-1-carboxamide] are 71.1 ± 2.32% and 10.2 nM.
Take `CC(C)(Cc1ccc(F)cc1)NC(=O)[C@@H](Cc1cnc2ncccn12)NC(=O)[C@H]1C[C@@H]1c1ccc(-c2cnc3nccn3c2)cc1` [Example 87, (1S,2S)-N-((R)-1-((1-(4-Fluorophenyl)-2-methylpropan-2-yl)amino)-3-(imidazo[1,2-a]pyrimidin-3-yl)-1-oxopropan-2-yl)-2-(4-(imidazo[1,2-a]pyrimidin-6-yl)phenyl)cyclopropane-1-carboxamide]: the Emax was determined as 71.1 ± 9.09% and the EC50 came to 52.7 nM.
The corresponding values for `CN(C(=O)[C@H]1C[C@@H]1c1ccc(-c2cnc3nn(C(F)F)cc3c2)cc1)[C@H](Cc1cnn(C)c1)C(=O)NC(C)(C)Cn1nc(C(F)(F)F)cc1-c1ccc(=O)n(C)c1` [Example 88, (1S,2S)-2-(4-(2-(Difluoromethyl)-2H-pyrazolo[3,4-b]pyridin-5-yl)phenyl)-N-methyl-N-((R)-1-((2-methyl-1-(5-(1-methyl-6-oxo-1,6-dihydropyridin-3-yl)-3-(trifluoromethyl)-1H-pyrazol-1-yl)propan-2-yl)amino)-3-(1-methyl-1H-pyrazol-4-yl)-1-oxopropan-2-yl)cyclopropane-1-carboxamide] are 116% and 89 nM.
On the same counts, the results for `CN(C(=O)[C@H]1C[C@@H]1c1ccc(-c2cnc3nn(C(F)(F)F)cc3c2)cc1)[C@H](Cc1cnn(C)c1)C(=O)NC(C)(C)Cn1nc(C(F)(F)F)cc1-c1ccc(=O)n(C)c1` [Example 89, (1S,2S)-N-Methyl-N-((R)-1-((2-methyl-1-(5-(1-methyl-6-oxo-1,6-dihydropyridin-3-yl)-3-(trifluoromethyl)-1H-pyrazol-1-yl)propan-2-yl)amino)-3-(1-methyl-1H-pyrazol-4-yl)-1-oxopropan-2-yl)-2-(4-(2-(trifluoromethyl)-2H-pyrazolo[3,4-b]pyridin-5-yl)phenyl)cyclopropane-1-carboxamide] are 32.3% and 152 nM.
The corresponding values for `COCc1cn2cc(-c3ccc([C@H]4C[C@@H]4C(=O)N(C)[C@H](Cc4cnn(C)c4)C(=O)NC(C)(C)Cn4nc(C(F)(F)F)cc4-c4ccc(=O)n(C)c4)cc3)cnc2n1` [Example 90, (1S,2S)-2-(4-(2-(Methoxymethyl)imidazo[1,2-a]pyrimidin-6-yl)phenyl)-N-methyl-N-((R)-1-((2-methyl-1-(5-(1-methyl-6-oxo-1,6-dihydropyridin-3-yl)-3-(trifluoromethyl)-1H-pyrazol-1-yl)propan-2-yl)amino)-3-(1-methyl-1H-pyrazol-4-yl)-1-oxopropan-2-yl)cyclopropane-1-carboxamide] are 120% and 45.5 nM.
With `Cc1cn2cc(-c3ccc([C@H]4C[C@@H]4C(=O)N(C)[C@H](Cc4cnn(C)c4)C(=O)NC(C)(C)Cn4nc(C(F)(F)F)cc4-c4ccc(=O)n(C)c4)cc3)cnc2n1` [Example 91, (1S,2S)-N-Methyl-N-((R)-1-((2-methyl-1-(5-(1-methyl-6-oxo-1,6-dihydropyridin-3-yl)-3-(trifluoromethyl)-1H-pyrazol-1-yl)propan-2-yl)amino)-3-(1-methyl-1H-pyrazol-4-yl)-1-oxopropan-2-yl)-2-(4-(2-methylimidazo[1,2-a]pyrimidin-6-yl)phenyl)cyclopropane-1-carboxamide], the Emax was determined as 114% and the EC50 came to 60.9 nM.
On the same counts, the results for `Cn1cc(C[C@@H](NC(=O)[C@H]2C[C@@H]2c2ccc(-c3cnc4nn(C)cc4c3)cc2)C(=O)NC(C)(C)Cn2nc(C(F)(F)F)cc2-c2cn[nH]n2)cn1` [Example 92, (1S,2S)-N—((R)-1-((1-(5-(2H-1,2,3-Triazol-4-yl)-3-(trifluoromethyl)-1H-pyrazol-1-yl)-2-methylpropan-2-yl)amino)-3-(1-methyl-1H-pyrazol-4-yl)-1-oxopropan-2-yl)-2-(4-(2-methyl-2H-pyrazolo[3,4-b]pyridin-5-yl)phenyl)cyclopropane-1-carboxamide] are 126 ± 1.93% and 47.1 nM.
On to `Cn1cc(C[C@@H](NC(=O)[C@H]2C[C@@H]2c2ccc(-c3cnc4nn(C)cc4c3)cc2F)C(=O)NC(C)(C)Cn2nc(C(F)(F)F)cc2-c2cn[nH]n2)cn1` [Example 93, (1S,2S)-N—((R)-1-((1-(5-(2H-1,2,3-Triazol-4-yl)-3-(trifluoromethyl)-1H-pyrazol-1-yl)-2-methylpropan-2-yl)amino)-3-(1-methyl-1H-pyrazol-4-yl)-1-oxopropan-2-yl)-2-(2-fluoro-4-(2-methyl-2H-pyrazolo[3,4-b]pyridin-5-yl)phenyl)cyclopropane-1-carboxamide], for which the Emax was 115 ± 1.41% and the EC50 was determined as 15.3 nM.
With `Cc1ccc2cc(-c3ccc([C@H]4C[C@@H]4C(=O)N[C@H](Cc4cnn(C)c4)C(=O)NC(C)(C)Cn4nc(C(F)(F)F)cc4-c4cn[nH]n4)cc3)cnc2n1` [Example 94, (1S,2S)-N—((R)-1-((1-(5-(2H-1,2,3-Triazol-4-yl)-3-(trifluoromethyl)-1H-pyrazol-1-yl)-2-methylpropan-2-yl)amino)-3-(1-methyl-1H-pyrazol-4-yl)-1-oxopropan-2-yl)-2-(4-(7-methyl-1,8-naphthyridin-3-yl)phenyl)cyclopropane-1-carboxamide], the Emax came out at 101% and the EC50 stood at 35.4 nM.
On the same counts, the results for `Cn1cc(C[C@H](C(=O)NC(C)(C)Cn2nc(C(F)(F)F)cc2-c2cn[nH]n2)N2CC[C@@]3(C[C@@H]3c3ccc(-c4cnc5nn(C)cc5c4)cc3)C2=O)cn1` [Example 95, (R)—N-(1-(5-(2H-1,2,3-Triazol-4-yl)-3-(trifluoromethyl)-1H-pyrazol-1-yl)-2-methylpropan-2-yl)-3-(1-methyl-1H-pyrazol-4-yl)-2-((1R,3R)-1-(4-(2-methyl-2H-pyrazolo[3,4-b]pyridin-5-yl)phenyl)-4-oxo-5-azaspiro[2.4]heptan-5-yl)propanamide] are 90 ± 2.84% and 48.1 nM.
As for `Cn1cc(C[C@@H](NC(=O)[C@H]2C[C@@H]2c2ccc(-c3cnc4nn(C)cc4c3)cc2)C(=O)NC(C)(C)Cn2nc(C(F)(F)F)cc2-c2cnn3c2CNCC3)cn1` [Example 96, (1S,2S)-N—((R)-1-((2-methyl-1-(5-(4,5,6,7-tetrahydropyrazolo[1,5-a]pyrazin-3-yl)-3-(trifluoromethyl)-1H-pyrazol-1-yl)propan-2-yl)amino)-3-(1-methyl-1H-pyrazol-4-yl)-1-oxopropan-2-yl)-2-(4-(2-methyl-2H-pyrazolo[3,4-b]pyridin-5-yl)phenyl)cyclopropane-1-carboxamide], the Emax stood at 104 ± 4.57% and the EC50 was 169 nM.
The corresponding values for `Cn1cc(C[C@@H](NC(=O)[C@H]2C[C@@H]2c2ccc(NC(=O)Nc3ccc(F)cc3)cc2)C(=O)NC(C)(C)Cc2ccc(F)cc2)cn1` [Example 97, (1S,2S)-N—((R)-1-((1-(4-Fluorophenyl)-2-methylpropan-2-yl)amino)-3-(1-methyl-1H-pyrazol-4-yl)-1-oxopropan-2-yl)-2-(4-(3-(4-fluorophenyl)ureido)phenyl)cyclopropane-1-carboxamide] are 96.6 ± 4.57% and 38.6 nM.

These data come from US20260108546A1 (ELI LILLY AND COMPANY, priority 2024, published 2026).
